Measurements as given in patent US11028064B2, “Tricyclic heterocyclic derivatives and uses thereof” (AUCKLAND UNISERVICES LIMITED, priority 2016, dated 2021).

Target: CSF-1R (FMS) (Homo sapiens (Human), UniProt P07333)
Assay: SelectScreen Z'-LYTE kinase assay, Assay 336 for CSF-1R (FMS)
Assay type: biochemical
Details: Z'-LYTE activity assay, 500 μM ATP (Km app); read-out: CSF-1R Enzyme IC50

Sequence of CSF-1R (FMS) (P07333 20-972): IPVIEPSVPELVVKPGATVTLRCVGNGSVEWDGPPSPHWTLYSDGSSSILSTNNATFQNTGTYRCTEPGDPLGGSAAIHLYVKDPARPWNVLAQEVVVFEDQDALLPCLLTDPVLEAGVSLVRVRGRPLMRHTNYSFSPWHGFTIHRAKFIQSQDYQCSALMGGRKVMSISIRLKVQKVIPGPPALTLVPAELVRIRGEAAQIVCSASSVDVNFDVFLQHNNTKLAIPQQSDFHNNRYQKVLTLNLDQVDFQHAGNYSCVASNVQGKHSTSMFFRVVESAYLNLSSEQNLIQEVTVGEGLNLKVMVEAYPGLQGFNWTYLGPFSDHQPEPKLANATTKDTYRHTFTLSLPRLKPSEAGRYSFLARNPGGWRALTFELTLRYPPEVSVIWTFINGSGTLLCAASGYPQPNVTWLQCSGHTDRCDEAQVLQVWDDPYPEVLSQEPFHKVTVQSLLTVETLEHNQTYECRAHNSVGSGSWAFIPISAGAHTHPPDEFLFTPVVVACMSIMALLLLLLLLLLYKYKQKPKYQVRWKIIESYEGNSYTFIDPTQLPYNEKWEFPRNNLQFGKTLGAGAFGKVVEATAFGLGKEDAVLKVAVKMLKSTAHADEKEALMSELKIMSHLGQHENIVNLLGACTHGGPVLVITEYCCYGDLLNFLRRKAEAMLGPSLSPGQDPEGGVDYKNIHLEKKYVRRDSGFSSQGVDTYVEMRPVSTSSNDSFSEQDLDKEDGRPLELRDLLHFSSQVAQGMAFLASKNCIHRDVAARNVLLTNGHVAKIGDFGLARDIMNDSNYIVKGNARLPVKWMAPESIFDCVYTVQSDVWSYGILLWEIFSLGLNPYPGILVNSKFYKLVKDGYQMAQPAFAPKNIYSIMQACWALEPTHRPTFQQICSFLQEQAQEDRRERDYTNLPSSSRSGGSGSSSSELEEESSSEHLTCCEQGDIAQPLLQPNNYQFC

| SMILES | IC50 |
| --- | --- |
| Cc1cc(OCCN(C)C)c2sc3cc(Oc4ccccc4)ccc3c(=O)c2c1 [Example 48, 4-(2-(Dimethylamino)ethoxy)-2-methyl-6-phenoxy-9H-thioxanthen-9-one] | 100 to 1000 nM |
| Cc1ccc2c(c1)c(=O)c1ccc(Sc3ccccc3)cc1n2CCCN(C)C [Example 52, 10-(3-(Dimethylamino)propyl)-2-methyl-6-(phenylthio)acridin-9(10H)-one] | 1000 to 10000 nM |
| COc1ccc(CCc2ccc(Oc3ccc4c(=O)c5cc(Cl)cc(OCCN(C)C)c5oc4c3)cn2)cc1 [Example 41, 2-Chloro-4-[2-(dimethylamino)ethoxy]-6-({6-[2-(4-methoxyphenyl)ethyl]-3-pyridinyl}oxy)-9H-xanthen-9-one] | 100 to 1000 nM |
| COc1cc(OCCN(C)C)cc2c(=O)c3ccc(Oc4ccc(CCC(=O)NC5CCCC5)nc4)cc3oc12 [Example 46, N-Cyclopentyl-3-(5-((7-(2-(dimethylamino)ethoxy)-5-methoxy-9-oxo-9H-xanthen-3-yl)oxy)pyridin-2-yl)propanamide] | < 100 nM |
| Cc1cc(OCCCN(C)C)c2oc3cc(Oc4ccc(CCC(=O)NC5CCCC5)nc4)ccc3c(=O)c2c1 [Example 63, N-Cyclopentyl-3-(5-((5-(3-(dimethylamino)propoxy)-7-methyl-9-oxo-9H-xanthen-3-yl)oxy)pyridin-2-yl)propanamide] | < 100 nM |
| COc1ccc(CNc2ccc(Oc3ccc4c(=O)c5cc(C)cc(OCCN(C)C)c5oc4c3)cn2)cn1 [Example 16, 4-(2-(Dimethylamino)ethoxy)-6-((6-(((6-methoxypyridin-3-yl)methyl)amino)pyridin-3-yl)oxy)-2-methyl-9H-xanthen-9-one] | < 100 nM |
| COc1ccc(CCc2ccc(Oc3ccc4c(=O)c5cc(C)cc(OCCN(C)C)c5sc4c3)cn2)cc1 [Example 50, 4-(2-(Dimethylamino)ethoxy)-6-((6-(4-methoxyphenethyl)pyridin-3-yl)oxy)-2-methyl-9H-thioxanthen-9-one] | < 100 nM |
| CCN(CC)CCOc1cc(C)cc2c(=O)c3ccc(Oc4ccc(CCC(=O)NC5CCCC5)nc4)cc3oc12 [Example 55, N-Cyclopentyl-3-(5-((5-(2-(diethylamino)ethoxy)-7-methyl-9-oxo-9H-xanthen-3-yl)oxy)pyridin-2-yl)propanamide] | < 100 nM |
| Cc1cc(OC[C@@H]2CCCN2C)c2oc3cc(Oc4ccc(CCC(=O)NC5CCCC5)nc4)ccc3c(=O)c2c1 [Example 73, (S)—N-Cyclopentyl-3-(5-((7-methyl-5-((1-methylpyrrolidin-2-yl)methoxy)-9-oxo-9H-xanthen-3-yl)oxy)pyridin-2-yl)propanamide] | < 100 nM |
| Cc1cc(OCCN2CCCCC2)c2oc3cc(Oc4ccc(CCC(=O)NC5CCCC5)nc4)ccc3c(=O)c2c1 [Example 38, N-Cyclopentyl-3-(5-((7-methyl-9-oxo-5-(2-(piperidin-1-yl)ethoxy)-9H-xanthen-3-yl)oxy)pyridin-2-yl)propanamide] | < 100 nM |
| CCN1CCN(CCCOc2cc(C)cc3c(=O)c4ccc(Oc5ccc(CCC(=O)NC6CCCC6)nc5)cc4oc23)CC1 [Example 65, N-Cyclopentyl-3-(5-((5-(3-(4-ethylpiperazin-1-yl)propoxy)-7-methyl-9-oxo-9H-xanthen-3-yl)oxy)pyridin-2-yl)propanamide] | < 100 nM |
| COc1ccc(CNc2ccc(Oc3ccc4c(=O)c5cc(C)cc(OCCN(C)C)c5oc4c3)cn2)cc1 [Example 14, 4-(2-(Dimethylamino)ethoxy)-6-((6-((4-methoxybenzyl)amino)pyridin-3-yl)oxy)-2-methyl-9H-xanthen-9-one] | < 100 nM |
| Cc1cc(OCCN(C)C)c2oc3cc(Oc4ccc(CCC(=O)Nc5cccnc5)nc4)ccc3c(=O)c2c1 [Example 21, 3-(5-((5-(2-(Dimethylamino)ethoxy)-7-methyl-9-oxo-9H-xanthen-3-yl)oxy)pyridin-2-yl)-N-(pyridin-3-yl)propanamide] | < 100 nM |
| Cc1cc(OCCCN2CCOCC2)c2oc3cc(Oc4ccc(CCC(=O)NC5CCCC5)nc4)ccc3c(=O)c2c1 [Example 69, N-Cyclopentyl-3-[5-({7-methyl-5-[3-(4-morpholinyl)propoxy]-9-oxo-9H-xanthen-3-yl}oxy)-2-pyridinyl]propanamide] | < 100 nM |
| Cc1cc(OCCN2CCOCC2)c2oc3cc(Oc4ccc(CCC(=O)NC5CCCC5)nc4)ccc3c(=O)c2c1 [Example 56, N-Cyclopentyl-3-[5-({7-methyl-5-[2-(4-morpholinyl)ethoxy]-9-oxo-9H-xanthen-3-yl}oxy)-2-pyridinyl]propanamide] | < 100 nM |
| COc1ccc(CCc2ccc(Oc3ccc4c(=O)c5cccc(OCCN(C)C)c5oc4c3)cn2)cc1 [Example 3, 5-[2-(Dimethylamino)ethoxy]-3-({6-[2-(4-methoxyphenyl)ethyl]-3-pyridinyl}oxy)-9H-xanthen-9-one] | 100 to 1000 nM |
| Cc1cc(OCCN(C)C)c2sc3cc(Oc4ccc(CCC(=O)NC5CCCC5)nc4)ccc3c(=O)c2c1 [Example 51, N-Cyclopentyl-3-(5-((5-(2-(dimethylamino)ethoxy)-7-methyl-9-oxo-9H-thioxanthen-3-yl)oxy)pyridin-2-yl)propanamide] | < 100 nM |

| SMILES | IC50 |
| --- | --- |
| COc1ccc(CCc2ccc(Oc3ccc4c(=O)c5cc(C)cc(OCCN(C)C)c5oc4c3)cn2)cc1 [Example 18, 4-(2-(Dimethylamino)ethoxy)-6-((6-(4-methoxyphenethyl)pyridin-3-yl)oxy)-2-methyl-9H-xanthen-9-one] | < 100 nM |
| COc1ccc(COc2ccc(Oc3ccc4c(=O)c5cc(C)cc(OCCN(C)C)c5oc4c3)cc2OC)cc1 [Example 7] | < 100 nM |
| Cc1cc(OCCN(C)C)c2sc3cc(Oc4cccc(C(=O)Nc5ccccc5)c4)ccc3c(=O)c2c1 [Example 49, 3-((5-(2-(Dimethylamino)ethoxy)-7-methyl-9-oxo-9H-thioxanthen-3-yl)oxy)-N-phenylbenzamide] | < 100 nM |
| Cc1cc(OCCN(C(C)C)C(C)C)c2oc3cc(Oc4ccc(CCC(=O)NC5CCCC5)nc4)ccc3c(=O)c2c1 [Example 57, N-Cyclopentyl-3-[5-({5-[2-(diisopropylamino)ethoxy]-7-methyl-9-oxo-9H-xanthen-3-yl}oxy)-2-pyridinyl]propanamide] | < 100 nM |
| Cc1cc(OCCN2C[C@@H](C)N[C@@H](C)C2)c2oc3cc(Oc4ccc(CCC(=O)NC5CCCC5)nc4)ccc3c(=O)c2c1 [Example 61, N-Cyclopentyl-3-(5-((5-(2-((3S,5R)-3,5-dimethylpiperazin-1-yl)ethoxy)-7-methyl-9-oxo-9H-xanthen-3-yl)oxy)pyridin-2-yl)propanamide] | < 100 nM |
| Cc1cc(OCC2CCCN(C)C2)c2oc3cc(Oc4ccc(CCC(=O)NC5CCCC5)nc4)ccc3c(=O)c2c1 (stereo not shown) [Example 76, N-Cyclopentyl-3-(5-((7-methyl-5-((1-methylpiperidin-3-yl)methoxy)-9-oxo-9H-xanthen-3-yl)oxy)pyridin-2-yl)propanamide] | < 100 nM |
| Cc1cc(OCCN(C)C)c2oc3cc(Oc4ccc(CCNC(=O)N5CCCC5)nc4)ccc3c(=O)c2c1 [Example 27, N-(2-(5-((5-(2-(Dimethylamino)ethoxy)-7-methyl-9-oxo-9H-xanthen-3-yl)oxy)pyridin-2-yl)ethyl)pyrrolidine-1-carboxamide] | < 100 nM |
| Cc1cc(OCCN(C)C)c2oc3cc(Oc4ccc(CCC(=O)NC5CCCC5)nc4)ccc3c(=O)c2c1 [Example 22, N-Cyclopentyl-3-(5-((5-(2-(dimethylamino)ethoxy)-7-methyl-9-oxo-9H-xanthen-3-yl)-oxy)pyridin-2-yl)propanamide] | < 100 nM |
| Cc1cc(OCCN)c2oc3cc(Oc4ccc(CCC(=O)NC5CCCC5)nc4)ccc3c(=O)c2c1 [Example 28, 3-(5-((5-(2-Aminoethoxy)-7-methyl-9-oxo-9H-xanthen-3-yl)oxy)pyridin-2-yl)-N-cyclopentylpropanamide] | < 100 nM |
| CN(C)CCOc1ccc2oc3cc(Oc4ccc(CCC(=O)NC5CCCC5)nc4)ccc3c(=O)c2c1 [Example 44, N-Cyclopentyl-3-(5-((7-(2-(dimethylamino)ethoxy)-9-oxo-9H-xanthen-3-yl)oxy)-pyridin-2-yl)propanamide] | < 100 nM |
| COc1ccc(COc2ccc(Oc3ccc4c(=O)c5cc(C)cc(OCCN(C)C)c5oc4c3)cn2)cn1 [Example 11, 4-(2-(Dimethylamino)ethoxy)-6-((6-((6-methoxypyridin-3-yl)methoxy)pyridin-3-yl)oxy)-2-methyl-9H-xanthen-9-one] | < 100 nM |
| CN(C)CCOc1cc(Cl)cc2c(=O)c3ccc(Oc4cccc(C(=O)Nc5ccccc5)c4)cc3oc12 [Example 40, 3-({7-Chloro-5-[2-(dimethylamino)ethoxy]-9-oxo-9H-xanthen-3-yl}oxy)-N-phenylbenzamide] | < 100 nM |
| Cc1cc(OCCN(C)C)c2oc3cc(Oc4ccc(OCc5ccc(C(F)(F)F)nc5)nc4)ccc3c(=O)c2c1 [Example 13, 4-(2-(Dimethylamino)ethoxy)-2-methyl-6-((6-((6-(trifluoromethyl)pyridin-3-yl)meth-oxy)pyridin-3-yl)oxy)-9H-xanthen-9-one] | < 100 nM |
| Cc1cc(OCC2CCCCN2C)c2oc3cc(Oc4ccc(CCC(=O)NC5CCCC5)nc4)ccc3c(=O)c2c1 (stereo not shown) [Example 74, N-Cyclopentyl-3-(5-((7-methyl-5-((1-methylpiperidin-2-yl)methoxy)-9-oxo-9H-xanthen-3-yl)oxy)pyridin-2-yl)propanamide] | < 100 nM |
| Cc1cc(OCCC2CCCN2C)c2oc3cc(Oc4ccc(CCC(=O)NC5CCCC5)nc4)ccc3c(=O)c2c1 (stereo not shown) [Example 75, N-Cyclopentyl-3-(5-((7-methyl-5-(2-(1-methylpyrrolidin-2-yl)ethoxy)-9-oxo-9H-xanthen-3-yl)oxy)pyridin-2-yl)propanamide] | < 100 nM |
| CN(C)CCOc1ccc2c(=O)c3ccc(Oc4ccc(CCC(=O)NC5CCCC5)nc4)cc3oc2c1 [Example 47, N-Cyclopentyl-3-(5-((6-(2-(dimethylamino)ethoxy)-9-oxo-9H-xanthen-3-yl)oxy)pyridine-2-yl)propanamide] | < 100 nM |
| Cc1cc(OCCN(C)C)c2oc3cc(Oc4ccc(CCNC(=O)C5CCCC5)nc4)ccc3c(=O)c2c1 [Example 26, N-(2-(5-((5-(2-(Dimethylamino)ethoxy)-7-methyl-9-oxo-9H-xanthen-3-yl)oxy)pyridin-2-yl)ethyl)cyclopentanecarboxamide] | < 100 nM |
